Reference: PubChem BioAssay AID1963835 (Molecular Pharmacology Branch, DTP, NCI, 2024)

Test system: 699152-130-R-J1-PDC complex spheroid viability
Experiment: Anticancer human tumor 699152-130-R-J1-PDC patient-derived pancreatic carcinoma cell line growth inhibition [POLQ]
Conditions: for IC50: curve of first compound; for viability, T/C: stronger effect = lower value; active = viability on the fitted dose curve at most 10% of control; inactive = the rest
Outline: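 Three-cell-type spheroids modelling solid tumor plus stroma served as the readout system; POL inhibitors were tested individually and in combination, concentration ranges set by clinical Cmax where known.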

[1] = second compound 0.0316 µM, first compound 0.0316 µM
[2] = second compound 0.0316 µM, first compound 0.1 µM
[3] = second compound 0.0316 µM, first compound 0.316 µM
[4] = second compound 0.0316 µM, first compound 1 µM
[5] = second compound 0.1 µM, first compound 0.0316 µM
[6] = second compound 0.1 µM, first compound 0.1 µM
[7] = second compound 0.1 µM, first compound 0.316 µM
[8] = second compound 0.1 µM, first compound 1 µM
[9] = second compound 0.316 µM, first compound 0.0316 µM
[10] = second compound 0.316 µM, first compound 0.1 µM
[11] = second compound 0.316 µM, first compound 0.316 µM
[12] = second compound 0.316 µM, first compound 1 µM
[13] = second compound 1 µM, first compound 0.0316 µM
[14] = second compound 1 µM, first compound 0.1 µM
[15] = second compound 1 µM, first compound 0.316 µM
[16] = second compound 1 µM, first compound 1 µM
[17] = second compound 3.16 µM, first compound 0.0316 µM
[18] = second compound 3.16 µM, first compound 0.1 µM
[19] = second compound 3.16 µM, first compound 0.316 µM
[20] = second compound 3.16 µM, first compound 1 µM
[21] = second compound 10 µM, first compound 0.0316 µM
[22] = second compound 10 µM, first compound 0.1 µM
[23] = second compound 10 µM, first compound 0.316 µM
[24] = second compound 10 µM, first compound 1 µM
[25] = second compound 0.0316 µM, first compound 0.00316 µM
[26] = second compound 0.0316 µM, first compound 0.01 µM
[27] = second compound 0.1 µM, first compound 0.00316 µM
[28] = second compound 0.1 µM, first compound 0.01 µM
[29] = second compound 0.316 µM, first compound 0.00316 µM
[30] = second compound 0.316 µM, first compound 0.01 µM
[31] = second compound 1 µM, first compound 0.00316 µM
[32] = second compound 1 µM, first compound 0.01 µM
[33] = second compound 3.16 µM, first compound 0.00316 µM
[34] = second compound 3.16 µM, first compound 0.01 µM
[35] = second compound 10 µM, first compound 0.00316 µM
[36] = second compound 10 µM, first compound 0.01 µM
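Also: spheroids exposed to agents for 7 days before viability reading.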
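For viability, T/C in this document: percent of DMSO vehicle control viability so 100% = vehicle and 0% = no viable signal.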

COc1ccc([C@@H](O)c2cc(-c3ncnc4cc(N5CCOCC5)ccc34)c(F)cc2Cl)nn1 + Nc1ccc(C#CCN(C(=O)Cc2ncc(C(F)(F)F)cc2C(F)(F)F)c2ccc(F)cc2)nn1
inactive: viability, T/C [1] 89.7% | viability, T/C [2] 95.3% | viability, T/C [3] 82.5% | viability, T/C [4] 78.8% | viability, T/C (second compound 0.0316 µM, first compound 3.16 µM) 48.1% | viability, T/C (second compound 0.0316 µM, first compound 10 µM) 19.2% | viability, T/C [5] 95.2% | viability, T/C [6] 93.3% | viability, T/C [7] 91.1% | viability, T/C [8] 76.4% | viability, T/C (second compound 0.1 µM, first compound 3.16 µM) 47.9% | viability, T/C (second compound 0.1 µM, first compound 10 µM) 25.5% | viability, T/C [9] 114% | viability, T/C [10] 93.2% | viability, T/C [11] 92.5% | viability, T/C [12] 70.9% | viability, T/C (second compound 0.316 µM, first compound 3.16 µM) 50.2% | viability, T/C (second compound 0.316 µM, first compound 10 µM) 19.3% | viability, T/C [13] 99.5% | viability, T/C [14] 100% | viability, T/C [15] 96.7% | viability, T/C [16] 85.9% | viability, T/C (second compound 1 µM, first compound 3.16 µM) 51.8% | viability, T/C (second compound 1 µM, first compound 10 µM) 22.5% | viability, T/C [17] 101% | viability, T/C [18] 92.6% | viability, T/C [19] 90.5% | viability, T/C [20] 83.4% | viability, T/C (second compound 3.16 µM, first compound 3.16 µM) 52.2% | viability, T/C (second compound 3.16 µM, first compound 10 µM) 21.8% | viability, T/C [21] 116% | viability, T/C [22] 105% | viability, T/C [23] 104% | viability, T/C [24] 84% | viability, T/C (second compound 10 µM, first compound 3.16 µM) 54.9% | viability, T/C (second compound 10 µM, first compound 10 µM) 26%
3890 nM: IC50 (second compound 10 µM)
3540 nM: IC50 (second compound 3.16 µM)
3050 nM: IC50 (second compound 0.316 µM)
3010 nM: IC50 (second compound 0.0316 µM)
2890 nM: IC50 (second compound 0.1 µM)
3390 nM: IC50 (second compound 1 µM)

COc1cccc(OCCCN)c1-c1cc(Nc2cnc(C#N)cn2)n[nH]1 + Nc1ccc(C#CCN(C(=O)Cc2ncc(C(F)(F)F)cc2C(F)(F)F)c2ccc(F)cc2)nn1
inactive: viability, T/C [25] 90.3% | viability, T/C [26] 101% | viability, T/C [1] 72.8% | viability, T/C [2] 64.2% | viability, T/C [3] 62.4% | viability, T/C [4] 65% | viability, T/C [27] 92.2% | viability, T/C [28] 101% | viability, T/C [5] 73.4% | viability, T/C [6] 59.3% | viability, T/C [7] 65.8% | viability, T/C [8] 56.1% | viability, T/C [29] 99.3% | viability, T/C [30] 93.8% | viability, T/C [9] 74.8% | viability, T/C [10] 68.6% | viability, T/C [11] 60.8% | viability, T/C [12] 59.9% | viability, T/C [31] 111% | viability, T/C [32] 100% | viability, T/C [13] 79.6% | viability, T/C [14] 69% | viability, T/C [15] 62.2% | viability, T/C [16] 55.8% | viability, T/C [33] 109% | viability, T/C [34] 94.4% | viability, T/C [17] 70.1% | viability, T/C [18] 60.6% | viability, T/C [19] 66.1% | viability, T/C [20] 65% | viability, T/C [35] 121% | viability, T/C [36] 92.3% | viability, T/C [21] 71.8% | viability, T/C [22] 64.7% | viability, T/C [23] 66.3% | viability, T/C [24] 60.5%
> 1000 nM: IC50 (second compound 0.0316 µM) | IC50 (second compound 0.1 µM) | IC50 (second compound 0.316 µM) | IC50 (second compound 1 µM) | IC50 (second compound 3.16 µM) | IC50 (second compound 10 µM)

Cn1ncnc1[C@H]1c2n[nH]c(=O)c3cc(F)cc(c23)N[C@@H]1c1ccc(F)cc1 + Nc1ccc(C#CCN(C(=O)Cc2ncc(C(F)(F)F)cc2C(F)(F)F)c2ccc(F)cc2)nn1
inactive: viability, T/C (second compound 0.0316 µM, first compound 0.000316 µM) 102% | viability, T/C (second compound 0.0316 µM, first compound 0.001 µM) 86.8% | viability, T/C [25] 89.6% | viability, T/C [26] 97.1% | viability, T/C [1] 87% | viability, T/C [2] 82.2% | viability, T/C (second compound 0.1 µM, first compound 0.000316 µM) 106% | viability, T/C (second compound 0.1 µM, first compound 0.001 µM) 89.1% | viability, T/C [27] 87.5% | viability, T/C [28] 101% | viability, T/C [5] 96% | viability, T/C [6] 82.8% | viability, T/C (second compound 0.316 µM, first compound 0.000316 µM) 102% | viability, T/C (second compound 0.316 µM, first compound 0.001 µM) 91.6% | viability, T/C [29] 103% | viability, T/C [30] 85.4% | viability, T/C [9] 92.6% | viability, T/C [10] 77.5% | viability, T/C (second compound 1 µM, first compound 0.000316 µM) 102% | viability, T/C (second compound 1 µM, first compound 0.001 µM) 102% | viability, T/C [31] 89.4% | viability, T/C [32] 98.8% | viability, T/C [13] 104% | viability, T/C [14] 76.5% | viability, T/C (second compound 3.16 µM, first compound 0.000316 µM) 90.7% | viability, T/C (second compound 3.16 µM, first compound 0.001 µM) 98% | viability, T/C [33] 105% | viability, T/C [34] 94.7% | viability, T/C [17] 91.7% | viability, T/C [18] 89.5% | viability, T/C (second compound 10 µM, first compound 0.000316 µM) 103% | viability, T/C (second compound 10 µM, first compound 0.001 µM) 106% | viability, T/C [35] 108% | viability, T/C [36] 95.2% | viability, T/C [21] 101% | viability, T/C [22] 99.6%
> 100 nM: IC50 (second compound 0.0316 µM) | IC50 (second compound 0.1 µM) | IC50 (second compound 0.316 µM) | IC50 (second compound 1 µM) | IC50 (second compound 3.16 µM) | IC50 (second compound 10 µM)
